In patent US12545673B2, “Imidazopyridine derivative and pharmaceutical composition comprising same as active ingredient” (TSD LIFE SCIENCES CO., LTD., priority 2019, dated 2026):
Like-named read-outs stand apart in the source and are kept apart here.

Legend:
MLK3 = MLK3 (Homo sapiens (Human), UniProt Q16584); assay: Evaluation of inhibitory activity of enzyme units, MLK3 ([γ-33P]-ATP filter assay); settings: read-out: IC50(nM) MLK3
[1] = system: acute myeloid leukemia cell line U937; assay: Cancer cell proliferation inhibitory activity evaluation 2 (CCK-8), U937; assay type: cell-based; settings: Homo sapiens, read-out: Cancer cell proliferation inhibitory activity U937
Method: (§1) In order to identify whether the compounds have anticancer activity, the acute myeloid leukemia cell line U937, the acute lymphoblastic leukemia cell line Jurkat, the gastric cancer cell lines AGS, […], and the human lung cancer cell line A549 were used. The cell line was cultured using RPMI-1640 medium (U937, Jurkat, AGS, A549) or DMEM (Hs746T) medium containing 10% fetal bovine serum. Welgene products were used as the medium, and hyclone products were used for fetal bovine serum, and 1% of antibiotics for cell culture from Gibco were used as the culture medium.

[2] = system: acute lymphoblastic leukemia cell line Jurkat; assay: Cancer cell proliferation inhibitory activity evaluation 2 (CCK-8), Jurkat; assay type: cell-based; settings: Homo sapiens
Method: as §1

[3] = system: gastric cancer cell line AGS; assay: Cancer cell proliferation inhibitory activity evaluation 2 (CCK-8), AGS; assay type: cell-based; settings: Homo sapiens, read-out: Cancer cell proliferation inhibitory activity AGS
Method: as §1

[4] = system: human lung cancer cell line A549; assay: Cancer cell proliferation inhibitory activity evaluation 2 (CCK-8), A549; assay type: cell-based
Method: as §1

[5] = system: gastric cancer cell line Hs746T; assay: Cancer cell proliferation inhibitory activity evaluation 2 (CCK-8), Hs746T; assay type: cell-based; settings: Homo sapiens
Method: as §1

MLK1 = MLK1 (Homo sapiens (Human), UniProt P80192); assay: Evaluation of inhibitory activity of enzyme units, MLK1 ([γ-33P]-ATP filter assay); assay type: biochemical
Chain of MLK1 (P80192 whole entry, looked up): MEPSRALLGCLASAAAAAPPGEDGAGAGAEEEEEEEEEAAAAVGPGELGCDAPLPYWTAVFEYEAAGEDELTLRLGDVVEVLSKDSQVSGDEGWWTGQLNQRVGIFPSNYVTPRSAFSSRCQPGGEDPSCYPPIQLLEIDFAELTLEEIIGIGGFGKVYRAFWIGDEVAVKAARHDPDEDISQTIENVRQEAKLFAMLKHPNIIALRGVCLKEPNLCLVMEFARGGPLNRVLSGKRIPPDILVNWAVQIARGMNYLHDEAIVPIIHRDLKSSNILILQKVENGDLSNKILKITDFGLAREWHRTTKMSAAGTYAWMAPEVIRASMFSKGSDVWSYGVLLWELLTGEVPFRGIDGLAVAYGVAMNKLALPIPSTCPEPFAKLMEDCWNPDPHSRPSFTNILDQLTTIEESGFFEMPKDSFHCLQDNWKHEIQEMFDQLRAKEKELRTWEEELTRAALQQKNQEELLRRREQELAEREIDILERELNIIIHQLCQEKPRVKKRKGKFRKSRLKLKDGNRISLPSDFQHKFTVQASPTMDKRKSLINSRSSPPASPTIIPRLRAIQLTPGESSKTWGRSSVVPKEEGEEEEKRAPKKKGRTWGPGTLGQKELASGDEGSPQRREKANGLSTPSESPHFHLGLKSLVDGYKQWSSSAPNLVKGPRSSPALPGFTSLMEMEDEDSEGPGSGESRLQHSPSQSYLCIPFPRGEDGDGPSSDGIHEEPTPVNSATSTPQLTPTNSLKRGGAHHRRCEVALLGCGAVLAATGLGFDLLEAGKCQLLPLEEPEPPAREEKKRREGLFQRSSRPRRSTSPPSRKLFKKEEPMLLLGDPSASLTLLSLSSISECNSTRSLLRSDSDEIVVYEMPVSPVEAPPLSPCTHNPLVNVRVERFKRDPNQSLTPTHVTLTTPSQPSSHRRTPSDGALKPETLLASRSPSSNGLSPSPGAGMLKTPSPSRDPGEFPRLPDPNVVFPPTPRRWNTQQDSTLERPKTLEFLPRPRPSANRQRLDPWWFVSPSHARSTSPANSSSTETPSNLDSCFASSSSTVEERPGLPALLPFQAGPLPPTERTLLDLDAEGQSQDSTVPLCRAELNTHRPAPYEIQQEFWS

[6] = 72 h, read-out: Cancer cell proliferation inhibitory activity Jurkat
[7] = A549, 72 h, read-out: Cancer cell proliferation inhibitory activity A549
[8] = 72 h, read-out: Cancer cell proliferation inhibitory activity Hs746T
[9] = U-937, 10 μM, 72 hours, CCK-8 (Table 3)
[10] = 10 μM, 72 hours, CCK-8, read-out: Cancer cell proliferation inhibitory activity Jurkat
[11] = A549, 10 μM, 72 hours, CCK-8, read-out: Cancer cell proliferation inhibitory activity A549
[12] = 10 μM, 72 hours, CCK-8, read-out: Cancer cell proliferation inhibitory activity Hs746T

Chain of MLK3 (Q16584 whole entry, looked up): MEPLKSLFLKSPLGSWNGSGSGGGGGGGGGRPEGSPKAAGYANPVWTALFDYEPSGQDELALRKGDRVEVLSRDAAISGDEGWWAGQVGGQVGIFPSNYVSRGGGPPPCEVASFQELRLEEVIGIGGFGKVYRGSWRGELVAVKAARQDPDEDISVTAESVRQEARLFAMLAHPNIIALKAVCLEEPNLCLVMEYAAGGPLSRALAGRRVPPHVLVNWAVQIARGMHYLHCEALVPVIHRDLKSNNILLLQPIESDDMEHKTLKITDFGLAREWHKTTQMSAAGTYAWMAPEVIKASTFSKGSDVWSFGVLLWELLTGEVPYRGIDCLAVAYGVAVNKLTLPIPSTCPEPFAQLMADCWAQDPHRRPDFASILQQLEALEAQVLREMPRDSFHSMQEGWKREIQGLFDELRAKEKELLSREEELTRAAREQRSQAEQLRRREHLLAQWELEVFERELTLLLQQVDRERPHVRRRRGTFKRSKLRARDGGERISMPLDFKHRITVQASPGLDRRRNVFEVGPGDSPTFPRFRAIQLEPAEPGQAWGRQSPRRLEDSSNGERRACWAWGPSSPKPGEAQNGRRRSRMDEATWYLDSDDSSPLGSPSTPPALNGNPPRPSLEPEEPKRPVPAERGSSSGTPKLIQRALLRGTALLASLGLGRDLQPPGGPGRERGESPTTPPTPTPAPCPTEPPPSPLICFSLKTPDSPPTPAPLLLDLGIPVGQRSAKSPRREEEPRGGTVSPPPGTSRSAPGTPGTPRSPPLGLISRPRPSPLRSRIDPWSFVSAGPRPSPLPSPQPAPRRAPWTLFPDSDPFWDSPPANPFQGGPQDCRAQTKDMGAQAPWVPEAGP

SMILES	IC50 (MLK3) [nM]	inhibition at 10 µM ([1]; U-937, 72 h) [%]	inhibition at 10 µM [2, 6] [%]	inhibition at 10 µM ([3]; 72 h) [%]	inhibition at 10 µM [4, 7] [%]	inhibition at 10 µM [5, 8] [%]	inhibition at 10 µM [1, 9] [%]	IC50 (MLK1) [nM]	inhibition at 10 µM [2, 10] [%]	inhibition at 10 µM [4, 11] [%]	inhibition at 10 µM [5, 12] [%]	inhibition at 10 µM ([3]; 10 μM, 72 hours, CCK-8) [%]
CCS(=O)(=O)N1CC[C@H](Nc2c(Br)cnc3[nH]c(-c4cc(C)n(-c5ccc(NS(C)(=O)=O)cc5C)c4C)nc23)C1 [Example 8, N-(4-(3-(6-bromo-7-(((S)-1-(ethylsulfonyl)pyrrolidine-3-yl)amino)-3H-imidazo[4,5-b]pyridine-2-yl)-2,5-dimethyl-1H-pyrrol-1-yl)-3-methylphenyl) methanesulfonamide]	7	> 50	> 50	> 50	> 50	> 50	–	–	–	–	–	–
CCS(=O)(=O)N1CC[C@H](Nc2c(Br)cnc3[nH]c(-c4cc(C)n(-c5cccc(NS(C)(=O)=O)c5C)c4C)nc23)C1 [Example 9, N-(3-(3-(6-bromo-7-(((S)-1-(ethylsulfonyl)pyrrolidine-3-yl)amino)-3H-imidazo[4,5-b]pyridine-2-yl)-2,5-dimethyl-1H-pyrrol-1-yl)-2-methylphenyl) methanesulfonamide]	10	> 50	> 50	> 50	> 50	> 50	–	–	–	–	–	–
CCS(=O)(=O)N1CC[C@H](Nc2c(Cl)cnc3[nH]c(-c4cc(C)n(-c5cc(NS(C)(=O)=O)ccc5C)c4C)nc23)C1 [Example 51, N-(3-(3-(6-chloro-7-(((S)-1-(ethylsulfonyl)pyrrolidine-3-yl)amino)-3H-imidazo[4,5-b]pyridine-2-yl)-2,5-dimethyl-1H-pyrrol-1-yl)-4-methylphenyl) methanesulfonamide]	330	–	–	–	–	–	> 50	53	> 50	10 to 50	> 50	–
CCS(=O)(=O)N1CC[C@H](Nc2c(Cl)cnc3nc(-c4cc(C)n(-c5ccc(OCCN6CCOCC6)cc5)c4C)[nH]c23)C1 [Example 52, (S)-6-chloro-2-(2,5-dimethyl-1-(4-(2-morpholinoethoxy)phenyl)-1H-pyrrol-3-yl)-N-(1-(ethylsulfonyl)pyrrolidine-3-yl)-1H-imidazo[4,5-b]pyridine-7-amine]	324	–	–	–	–	–	> 50	87	> 50	10 to 50	> 50	–
CCN(CC)CCNC(=O)c1cccc(-n2c(C)cc(-c3nc4ncc(Br)c(N[C@H]5CCN(S(=O)(=O)CC)C5)c4[nH]3)c2C)c1 [Example 56, (S)-3-(3-(6-bromo-7-((1-(ethylsulfonyl)pyrrolidine-3-yl)amino)-1H-imidazo[4,5-b]pyridine-2-yl)-2,5-dimethyl-1H-pyrrol-1-yl)-N-(2-(diethylamino)ethyl)benzamide]	122	–	–	–	–	–	> 50	–	> 50	> 50	> 50	> 50
CCN(CC)CCNC(=O)c1ccc(-n2c(C)cc(-c3nc4ncc(Br)c(N[C@H]5CCN(S(=O)(=O)CC)C5)c4[nH]3)c2C)cc1 [Example 57, (S)-4-(3-(6-bromo-7-((1-(ethylsulfonyl)pyrrolidine-3-yl)amino)-1H-imidazo[4,5-b]pyridine-2-yl)-2,5-dimethyl-1H-pyrrol-1-yl)-N-(2-(diethylamino)ethyl)benzamide]	97	> 50	> 50	> 50	> 50	> 50	–	–	–	–	–	–
CCS(=O)(=O)N1CC[C@H](Nc2c(Br)cnc3[nH]c(-c4cc(C)n(-c5ccc(C(=O)O)cc5)c4C)nc23)C1 [Example 59, (S)-4-(3-(6-bromo-7-((1-(ethylsulfonyl)pyrrolidine-3-yl)amino)-3H-imidazo[4,5-b]pyridine-2-yl)-2,5-dimethyl-1H-pyrrol-1-yl)benzoic acid]	19	10 to 50	10 to 50	< 10	< 10	10 to 50	–	–	–	–	–	–
CCS(=O)(=O)N1CC[C@H](Nc2c(Br)cnc3[nH]c(-c4cc(C)n(-c5cccc(C(=O)NCN(C)C)c5)c4C)nc23)C1 [Example 60, (S)-3-(3-(6-bromo-7-((1-(ethylsulfonyl)pyrrolidine-3-yl)amino)-3H-imidazo[4,5-b]pyridine-2-yl)-2,5-dimethyl-1H-pyrrol-1-yl)-N-((dimethylamino)methyl)benzamide]	27	> 50	> 50	> 50	> 50	> 50	–	–	–	–	–	–
CCS(=O)(=O)N1CC[C@H](Nc2c(Br)cnc3[nH]c(-c4cc(C)n(-c5cccc(C(=O)N(C)CCN(C)C)c5)c4C)nc23)C1 [Example 61, (S)-3-(3-(6-bromo-7-((1-(ethylsulfonyl)pyrrolidine-3-yl)amino)-3H-imidazo[4,5-b]pyridine-2-yl)-2,5-dimethyl-1H-pyrrol-1-yl)-N-(2-(dimethylamino)ethyl)-N-methylbenzamide]	30	> 50	> 50	> 50	> 50	> 50	–	19	–	–	–	–
CCS(=O)(=O)N1CC[C@H](Nc2c(Br)cnc3nc(-c4cc(C)n(-c5cccc(NC(=O)CN(C)C)c5)c4C)[nH]c23)C1 [Example 64, (S)—N-(3-(3-(6-bromo-7-((1-(ethylsulfonyl)pyrrolidine-3-yl)amino)-1H-imidazo[4,5-b]pyridine-2-yl)-2,5-dimethyl-1H-pyrrol-1-yl)phenyl)-2-(dimethylamino) acetamide]	14	> 50	> 50	> 50	> 50	> 50	–	34	–	–	–	–
CCS(=O)(=O)N1CC[C@H](Nc2c(Br)cnc3nc(-c4cc(C)n(-c5cccc(NC(=O)CN6CCN(C)CC6)c5)c4C)[nH]c23)C1 [Example 65]	26	> 50	> 50	> 50	< 10	> 50	–	42	–	–	–	–
CCS(=O)(=O)N1CC[C@H](Nc2c(Br)cnc3nc(-c4cc(C)n(-c5cccc(NC(=O)CN6CCOCC6)c5)c4C)[nH]c23)C1 [Example 66, (S)—N-(3-(3-(6-bromo-7-((1-(ethylsulfonyl)pyrrolidine-3-yl)amino)-1H-imidazo[4,5-b]pyridine-2-yl)-2,5-dimethyl-1H-pyrrol-1-yl)phenyl)-2-morpholinoacetamide]	17	10 to 50	> 50	> 50	10 to 50	> 50	–	22	–	–	–	–
CCS(=O)(=O)N1CC[C@H](Nc2c(Br)cnc3nc(-c4cc(C)n(-c5ccc(C(=O)N6CCN(C)CC6)cc5)c4C)[nH]c23)C1 [Example 67, (S)-(4-(3-(6-bromo-7-((1-(ethylsulfonyl)pyrrolidine-3-yl)amino)-1H-imidazo[4,5-b]pyridine-2-yl)-2,5-dimethyl-1H-pyrrol-1-yl)phenyl) (4-methylpiperazine-1-yl) methanone]	19	> 50	> 50	> 50	10 to 50	10 to 50	–	32	–	–	–	–
CCS(=O)(=O)N1CC[C@H](Nc2c(Br)cnc3nc(-c4cc(C)n(-c5cccc(C(=O)N6CCN(C)CC6)c5)c4C)[nH]c23)C1 [Example 68]	16	> 50	> 50	> 50	> 50	> 50	–	25	–	–	–	–
CCS(=O)(=O)N1CC[C@H](Nc2c(Br)cnc3[nH]c(-c4cc(C)n(-c5cccc(C(=O)NCCN6CCOCC6)c5)c4C)nc23)C1 [Example 69, (S)-3-(3-(6-bromo-7-((1-(ethylsulfonyl)pyrrolidine-3-yl)amino)-3H-imidazo[4,5-b]pyridine-2-yl)-2,5-dimethyl-1H-pyrrol-1-yl)-N-(2-morpholinoethyl)benzamide]	13	> 50	> 50	> 50	10 to 50	10 to 50	–	22	–	–	–	–
CCS(=O)(=O)N1CC[C@H](Nc2c(Br)cnc3nc(-c4cc(C)n(-c5cc(NC(=O)CCN(C)C)ccc5C)c4C)[nH]c23)C1 [Example 80]	–	–	–	–	–	–	> 50	–	> 50	> 50	> 50	> 50
